Reference: patent US20250228239A1, “MOLECULES HAVING PESTICIDAL UTILITY, AND INTERMEDIATES, COMPOSITIONS, AND PROCESSES, RELATED THERETO” (priority 2024, published 2025)

Legend:
Format in all cases: in vivo
[1] = test system: Beet Armyworm (Spodoptera exigua, LAPHEG); test: Bioassays on Beet Armyworm (BAW), 128-well diet tray assay; details: Spodoptera exigua; Beet Armyworm; rating class; read-out: BAW
In short: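 Larvae at second instar are exposed on dried, compound-treated diet (50 μg/cm^2, delivered in 90:10 acetone-water) in eight replicate wells. After five to seven days at 25° C., 14:10 light-dark, percent mortality in each well is scored and the eight wells averaged.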

[2] = test system: Cabbage Looper (Trichoplusia ni, TRIPNI); test: Bioassays on Cabbage Looper (CL), 128-well diet tray assay; details: Trichoplusia ni; Cabbage Looper; rating class; read-out: CL
In short: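 Second-instar larvae (1–5 per well) placed on artificial diet surface-treated with 50 μg/cm^2 test molecule applied in 90:10 acetone-water and dried. Held at 25° C., 14:10 light-dark, for five to seven days. Percent mortality scored per well and averaged over eight wells.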

[3] = test system: Yellow Fever Mosquito (Aedes aegypti, AEDSAE); details: Yellow Fever Mosquito; rating class
In short: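 Mortality after 3 days at room temperature is the read-out, scored well by well and converted to a rating. Test molecules came from 4000 ppm stocks in DMSO, further diluted in 90:10 water/acetone, and were exposed to roughly 1-day-old larvae suspended in liver-powder water.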

| SMILES | pest or weed control at 50 µg/cm2 [1] [%] | pest or weed control at 50 µg/cm2 [2] [%] | YFM [3] |
| --- | --- | --- | --- |
| Cc1c(N)ccc(Br)c1NC(=O)c1cc(NC(=O)[C@H]2[C@H](c3ccc(F)c(C(F)(F)F)c3)C2(Cl)Cl)ccc1Cl [F1684, N-(3-Amino-6-bromo-2-methylphenyl)-2-chloro-5-((1R,3R)-2,2-dichloro-3-(4-fluoro-3-(trifluoromethyl)phenyl)cyclopropane-1-carboxamido)benzamide] | 50 to 100 | 50 to 100 | B (More than 0 – Less than 80) |
| O=C(Nc1ccc(F)c(NC(=O)C(Cl)Cl)c1F)c1cc(NC(=O)[C@H]2[C@H](c3cc(Cl)c(Cl)c(Cl)c3)C2(Cl)Cl)ccc1Cl [F1685, 2-Chloro-5-((1R,3R)-2,2-dichloro-3-(3,4,5-trichlorophenyl)cyclopropane-1-carboxamido)-N-(3-(2,2-dichloroacetamido)-2,4-difluorophenyl)benzamide] | 50 to 100 | 50 to 100 | A (80–100) |
| O=C(Nc1ccc(F)c(NC(=O)C(F)(F)Cl)c1F)c1cc(NC(=O)[C@H]2[C@H](c3cc(Cl)c(Cl)c(Cl)c3)C2(Cl)Cl)ccc1Cl [F1686, 2-Chloro-N-(3-(2-chloro-2,2-difluoroacetamido)-2,4-difluorophenyl)-5-((1R,3R)-2,2-dichloro-3-(3,4,5-trichlorophenyl)cyclopropane-1-carboxamido)benzamide] | 50 to 100 | 50 to 100 | A (80–100) |
| Nc1c(F)ccc(NC(=O)c2cc(NC(=O)[C@H]3[C@H](c4cc(F)cc(C(F)(F)F)c4)C3(Cl)Cl)ccc2Cl)c1F [F1687, N-(3-Amino-2,4-difluorophenyl)-2-chloro-5-((1R,3R)-2,2-dichloro-3-(3-fluoro-5-(trifluoromethyl)phenyl)cyclopropane-1-carboxamido)benzamide] | 50 to 100 | 50 to 100 | A (80–100) |
| Cc1c(NC(=O)c2cc(NC(=O)[C@H]3[C@H](c4ccc(F)c(C(F)(F)F)c4)C3(Cl)Cl)ccc2Cl)ccc(Br)c1[N+](=O)[O-] [F1688, N-(4-Bromo-2-methyl-3-nitrophenyl)-2-chloro-5-((1R,3R)-2,2-dichloro-3-(4-fluoro-3-(trifluoromethyl)phenyl)cyclopropane-1-carboxamido)benzamide] | 50 to 100 | 50 to 100 | A (80–100) |
| CO[C@H](C)C(=O)Nc1c(F)ccc(NC(=O)c2cc(NC(=O)[C@H]3[C@H](c4ccc(F)c(C(F)(F)F)c4)C3(Cl)Cl)ccc2Cl)c1F [F1689, 2-Chloro-5-((1R,3R)-2,2-dichloro-3-(4-fluoro-3-(trifluoromethyl)phenyl)cyclopropane-1-carboxamido)-N-(2,4-difluoro-3-((R)-2-methoxypropanamido)phenyl)benzamide] | 50 to 100 | 50 to 100 | B (More than 0 – Less than 80) |
| Cc1c(NC(=O)c2cc(NC(=O)[C@H]3[C@H](c4ccc(F)c(C(F)(F)F)c4)C3(Cl)Cl)ccc2Cl)ccc(Br)c1N [F1690, N-(3-Amino-4-bromo-2-methylphenyl)-2-chloro-5-((1R,3R)-2,2-dichloro-3-(4-fluoro-3-(trifluoromethyl)phenyl)cyclopropane-1-carboxamido)benzamide] | 50 to 100 | 50 to 100 | A (80–100) |
| O=C(Nc1ccc(F)c(NC(=O)[C@H]2CCCO2)c1F)c1cc(NC(=O)[C@H]2[C@H](c3ccc(F)c(C(F)(F)F)c3)C2(Cl)Cl)ccc1Cl [F1691, (R)—N-(3-(2-Chloro-5-((1R,3R)-2,2-dichloro-3-(4-fluoro-3-(trifluoromethyl)phenyl)cyclopropane-1-carboxamido)benzamido)-2,6-difluorophenyl)tetrahydrofuran-2-carboxamide] | 50 to 100 | 50 to 100 | B (More than 0 – Less than 80) |
| O=C(Nc1ccc(F)c(NC(=O)[C@@H]2CCCO2)c1F)c1cc(NC(=O)[C@H]2[C@H](c3ccc(F)c(C(F)(F)F)c3)C2(Cl)Cl)ccc1Cl [F1692, (S)—N-(3-(2-Chloro-5-((1R,3R)-2,2-dichloro-3-(4-fluoro-3-(trifluoromethyl)phenyl)cyclopropane-1-carboxamido)benzamido)-2,6-difluorophenyl)tetrahydrofuran-2-carboxamide] | 50 to 100 | 50 to 100 | B (More than 0 – Less than 80) |
| O=C(Nc1ccc(F)c(NC(=O)C2CCCO2)c1F)c1cc(NC(=O)[C@H]2[C@H](c3cc(F)cc(C(F)(F)F)c3)C2(Cl)Cl)ccc1Cl (stereo partly drawn) [F1706, N-(3-(2-Chloro-5-((1R,3R)-2,2-dichloro-3-(3-fluoro-5-(trifluoromethyl)phenyl)cyclopropane-1-carboxamido)benzamido)-2,6-difluorophenyl)tetrahydrofuran-2-carboxamide] | 50 to 100 | 50 to 100 | A (80–100) |
| O=C(Nc1ccc(F)c(NC(=O)C(F)(F)C(F)F)c1F)c1cc(NC(=O)[C@H]2[C@H](c3cc(F)cc(C(F)(F)F)c3)C2(Cl)Cl)ccc1Cl [F1707, 2-Chloro-5-((1R,3R)-2,2-dichloro-3-(3-fluoro-5-(trifluoromethyl)phenyl)cyclopropane-1-carboxamido)-N-(2,4-difluoro-3-(2,2,3,3-tetrafluoropropanamido)phenyl)benzamide] | 50 to 100 | 50 to 100 | A (80–100) |
| CCC(=O)Nc1c(F)ccc(NC(=O)c2cc(NC(=O)[C@H]3[C@H](c4cc(F)cc(C(F)(F)F)c4)C3(Cl)Cl)ccc2Cl)c1F [F1709, 2-Chloro-5-((1R,3R)-2,2-dichloro-3-(3-fluoro-5-(trifluoromethyl)phenyl)cyclopropane-1-carboxamido)-N-(2,4-difluoro-3-propionamidophenyl)benzamide] | 50 to 100 | 50 to 100 | A (80–100) |
| COC(C)C(=O)Nc1c(F)ccc(NC(=O)c2cc(NC(=O)[C@H]3[C@H](c4ccc(F)c(C(F)(F)F)c4)C3(Cl)Cl)ccc2Cl)c1F (stereo partly drawn) [F1712, 2-Chloro-5-((1R,3R)-2,2-dichloro-3-(4-fluoro-3-(trifluoromethyl)phenyl)cyclopropane-1-carboxamido)-N-(2,4-difluoro-3-(2-methoxypropanamido)phenyl)benzamide] | 50 to 100 | 50 to 100 | A (80–100) |
| O=C(Nc1ccc(F)c(NC(=O)C(F)(F)Cl)c1F)c1cc(NC(=O)[C@H]2[C@H](c3ccc(Cl)c(C(F)(F)F)c3)C2(Cl)Cl)ccc1Cl [F1719, 2-Chloro-N-(3-(2-chloro-2,2-difluoroacetamido)-2,4-difluorophenyl)-5-((1R,3R)-2,2-dichloro-3-(4-chloro-3-(trifluoromethyl)phenyl)cyclopropane-1-carboxamido)benzamide] | 50 to 100 | 50 to 100 | A (80–100) |
| CO[C@@H](C)C(=O)Nc1c(F)ccc(NC(=O)c2cc(NC(=O)[C@H]3[C@H](c4ccc(F)c(C(F)(F)F)c4)C3(Cl)Cl)ccc2Cl)c1F [F1720, 2-Chloro-5-((1R,3R)-2,2-dichloro-3-(4-fluoro-3-(trifluoromethyl)phenyl)cyclopropane-1-carboxamido)-N-(2,4-difluoro-3-((S)-2-methoxypropanamido)phenyl)benzamide] | 50 to 100 | 50 to 100 | A (80–100) |
| O=C(Nc1ccccc1)c1cc(NC(=O)[C@H]2[C@H](c3ccc(F)c(C(F)(F)F)c3)C2(Cl)Cl)c(F)cc1Cl [F1723, 2-Chloro-5-((1R,3R)-2,2-dichloro-3-(4-fluoro-3-(trifluoromethyl)phenyl)cyclopropane-1-carboxamido)-4-fluoro-N-phenylbenzamide] | 50 to 100 | 50 to 100 | A (80–100) |
| O=C(Nc1ccc(F)cc1)c1cc(NC(=O)[C@H]2[C@H](c3ccc(F)c(C(F)(F)F)c3)C2(Cl)Cl)c(F)cc1Cl [F1725, 2-Chloro-5-((1R,3R)-2,2-dichloro-3-(4-fluoro-3-(trifluoromethyl)phenyl)cyclopropane-1-carboxamido)-4-fluoro-N-(4-fluorophenyl)benzamide] | 50 to 100 | 50 to 100 | A (80–100) |
| O=C(Nc1ccc(F)cc1F)c1cc(NC(=O)[C@H]2[C@H](c3ccc(F)c(C(F)(F)F)c3)C2(Cl)Cl)c(F)cc1Cl [F1727, 2-Chloro-5-((1R,3R)-2,2-dichloro-3-(4-fluoro-3-(trifluoromethyl)phenyl)cyclopropane-1-carboxamido)-N-(2,4-difluorophenyl)-4-fluorobenzamide] | 50 to 100 | 50 to 100 | A (80–100) |
| O=C(Nc1ccc(F)c(NC(=O)C(Cl)CCl)c1F)c1cc(NC(=O)[C@H]2[C@H](c3ccc(F)c(C(F)(F)F)c3)C2(Cl)Cl)ccc1Cl (stereo partly drawn) [F1728, 2-Chloro-5-((1R,3R)-2,2-dichloro-3-(4-fluoro-3-(trifluoromethyl)phenyl)cyclopropane-1-carboxamido)-N-(3-(2,3-dichloropropanamido)-2,4-difluorophenyl)benzamide] | 50 to 100 | 50 to 100 | B (More than 0 – Less than 80) |
